Test [1] is described as follows: concentration-response yeast growth inhibition under permissive conditions, counter-assay for yeast lifespan-shortening chemical project (AID 850).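 Also: growth read as optical density after one day of incubation.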 Conditions: Saccharomyces cerevisiae growth inhibition, permissive control, measured here: maximum growth inhibition, stronger effect = higher value.
Test [2] relates to Saccharomyces cerevisiae growth inhibition, permissive control. The description is as above.

Data on 51 molecules can be found in PubChem BioAssay AID850 (SRMLSC, 2007).

Active and inactive are the calls of the source. No rule for the calls is given here.

What is called inhibition is the relative decrease from the control value, in per cent. Usually IC50 stands for the midpoint of a concentration-inhibition curve. Turning to `CC(C)C(=O)NC(c1ccccc1)c1cc([N+](=O)[O-])c2cccnc2c1O` (configuration not stated), the inhibition in test [1] (at 50 µM) was determined as 93.4%. Besides, the half-inhibitory concentration (IC50) in test [2] is 29.6 µM.

In turn, `COc1cc(CNCCN2CCOCC2)ccc1OCc1cccc(Cl)c1` showed an inhibition in test [1] (at 25 µM) of 12.3%. Moreover, the IC50 in test [2] was > 100 µM (inactive).

Regarding `COc1cc(OC)c(C2CC(=O)N3CN(C)CSC3=C2C#N)cc1OC` (configuration not stated), the inhibition in test [1] (at 0.781 µM) amounted to 11%. Moreover, the IC50 in test [2] is > 100 µM (inactive).

With `Clc1ccc(COC(Cn2ccnc2)c2ccc(Cl)cc2Cl)cc1` (configuration not stated), the inhibition in test [1] (at 50 µM) worked out at 100%. For the same molecule, the IC50 in test [2] is 0.705 µM.

In test [1] (at 50 µM), `CCc1nc2ccccc2c(=O)n1NC(=O)c1c(O)c2cccc3c2n(c1=O)CCC3` yielded an inhibition of 2.73%. For the same molecule, in test [2], the IC50 was > 100 µM (inactive).

In test [1] (at 50 µM), `COc1ccccc1OCCN1CSC(=S)N(C)C1` came in with an inhibition of 82.4%. The IC50 in test [2] was 17.2 µM.

Regarding `c1ccc2c(c1)nnn1c3ccccc3nc21`, in test [1] (at 3.125 µM), the inhibition came out at 14.6%. The IC50 in test [2] was > 100 µM (inactive).

In test [1] (at 50 µM), `Cc1ccccc1NC(=S)c1nc2ccccc2[nH]1` returned an inhibition of 95.3%. Besides, the IC50 in test [2] is 11.8 µM.

Molecule `c1ccc(-c2ccc(OCCCn3cncn3)cc2)cc1` had an inhibition in test [1] (at 25 µM) of 57.7%. Also, the IC50 in test [2] is 34.1 µM.

For the molecule `CC1=NOC(=O)/C1=C\c1ccc(-c2ccc(Cl)cc2Cl)o1`, the inhibition in test [1] (at 50 µM) turned out to be 80.5%. For the same molecule, the IC50 in test [2] is 32.3 µM.

In the case of `Cc1ccc(-c2nc3sc(C(N)=O)c(N)c3c3c2CCCC3)cc1`, the inhibition in test [1] (at 50 µM) was 14.4%. The IC50 in test [2] was > 100 µM (inactive).

For the molecule `O=C(c1ccccc1)c1ccc2nc(N3CCCCC3)c3nncn3c2c1`, the inhibition in test [1] (at 0.195 µM) was 14.9%. In addition, the IC50 in test [2] is > 100 µM (inactive).

Turning to `Cc1ccc(/C=C/C(=O)c2ccccc(=O)c2O)cc1C`, the inhibition in test [1] (at 25 µM) came to 98.9%. Besides, the IC50 in test [2] was 4.5 µM.

Turning to `Fc1ccc2nc3[nH]c4ccccc4c3nc2c1`, the inhibition in test [1] (at 50 µM) is 20.7%. Besides, the IC50 in test [2] was > 100 µM (inactive).

`Cc1ccc(O)c(-c2cc(-c3ccccc3C)[nH]n2)c1`: the inhibition in test [1] (at 50 µM) amounted to 56.5%. For the same molecule, the IC50 in test [2] is 44.7 µM.

In test [1] (at 12.5 µM), `O=Cc1c(Sc2ccccc2)nc2ccccn2c1=O` gave an inhibition of 2.01%. In addition, in test [2], the IC50 is > 100 µM (inactive).

Regarding `CN(C)c1ccc(/C=C/c2ccc3ccccc3[n+]2C)cc1`, in test [1] (at 50 µM), the inhibition stood at 85.8%. The IC50 in test [2] was 22.3 µM.

As to `Oc1cccc2ccc(Nc3ccccn3)nc12`, the inhibition in test [1] (at 50 µM) was found to be 99.4%. Further, the IC50 in test [2] was 12.5 µM.

The molecule `O=[N+]([O-])c1cc(CN2CCCC2)c2cccnc2c1O` came in with an inhibition in test [1] (at 50 µM) of 21%. Further, the IC50 in test [2] was > 100 µM (inactive).

In test [1] (at 25 µM), `COc1ccc(N)c2c1C(=O)c1ccccc1C2=O` returned an inhibition of 22.5%. Further, the IC50 in test [2] is > 100 µM (inactive).

On to `Cc1c(C(=O)O)cccc1-c1ccc(/C=N/Nc2ccc(Br)cc2)o1`, for which the inhibition in test [1] (at 50 µM) is 95.6%. For the same molecule, the IC50 in test [2] is 13.1 µM.

In test [1] (at 12.5 µM), `OC(Cn1cncn1)(c1ccccc1)c1ccccc1` gave an inhibition of 90.3%. Besides, the IC50 in test [2] was 6.82 µM.

With `CNC(=O)c1cc2c(ccc3ccccc32)oc1=N`, the inhibition in test [1] (at 50 µM) is 74.8%. In addition, the IC50 in test [2] was 23.5 µM.

In test [1] (at 6.25 µM), `O=C(O)C1C2C=CC(O2)C1C(=O)NC1CCCc2ccccc21` (configuration not stated) displayed an inhibition of 10.9%. Besides, in test [2], the IC50 was > 100 µM (inactive).

Take `CCn1c(=O)c(C(=O)Nc2nc3ccccc3[nH]2)c(O)c2ccccc21`: the inhibition in test [1] (at 0.781 µM) is 24.2%. Besides, the IC50 in test [2] was > 100 µM (inactive).

Take `CCOC(=O)c1c(N)sc2c(OC)c(Br)ccc12`: in test [1] (at 3.125 µM), the inhibition turned out to be 24.4%. The IC50 in test [2] is > 100 µM (inactive).

In test [1] (at 0.781 µM), `CCOc1ccccc1C1CC(c2ccc(Br)cc2)Nc2nc(N)nn21` (configuration not stated) displayed an inhibition of 10.2%. Further, the IC50 in test [2] was > 100 µM (inactive).

Consider `CC(C)(C)c1cc(C(c2cccnc2)N2CCN(CCO)CC2)cc(C(C)(C)C)c1O` (configuration not stated), for which the inhibition in test [1] (at 50 µM) turned out to be 53.3%. Further, in test [2], the IC50 was 48.7 µM.

Molecule `C=CCn1c2ccccc2c2nnc(SCN3C(=O)c4ccccc4C3=O)nc21` returned an inhibition in test [1] (at 6.25 µM) of 12.7%. Also, the IC50 in test [2] is > 100 µM (inactive).

In test [1] (at 50 µM), `Oc1ccc(/C=N/N=C(c2ccccc2)c2ccccc2)c(O)c1O` gave an inhibition of 79.8%. In addition, the IC50 in test [2] is 30.1 µM.

In the case of `COc1ccc2c(c1)[nH]c1c(Cl)ncnc12`, the inhibition in test [1] (at 0.195 µM) is 21.3%. Further, the IC50 in test [2] was > 100 µM (inactive).

Consider `O=C(O)Cc1ccc2sc(-c3ccccc3)nc2c1`, for which the inhibition in test [1] (at 50 µM) was determined as 26.9%. Also, the IC50 in test [2] is > 100 µM (inactive).

In test [1] (at 50 µM), `CN1C(=O)C2(N=c3ccccc3=N2)c2ccccc21` had an inhibition of 21.4%. Further, the IC50 in test [2] is > 100 µM (inactive).

In turn, `Cc1ccc(-n2nnc3c(=O)n(CC(=O)N4CCC(C)CC4)cnc32)cc1` returned an inhibition in test [1] (at 25 µM) of 17.4%. Moreover, the IC50 in test [2] was > 100 µM (inactive).

`CCN(CC)N=Nc1[nH]nc2nc(C)cc(C)c12` yielded an inhibition in test [1] (at 50 µM) of 55.1%. For the same molecule, in test [2], the IC50 is 48.6 µM.

Take `Nc1nonc1C(=O)NCCN=Cc1cc(Cc2ccccc2)cc(Br)c1O`: in test [1] (at 50 µM), the inhibition came to 22.4%. Besides, the IC50 in test [2] is > 100 µM (inactive).

For the molecule `Cc1cccc(Nc2nc(-c3ccccn3)cs2)n1`, the inhibition in test [1] (at 25 µM) came to 63.1%. In addition, the IC50 in test [2] is 13.3 µM.

In test [1] (at 50 µM), `Cc1cc(C(=O)COC(=O)c2ccc[nH]c2=O)c(C)n1-c1ccc(F)cc1` gave an inhibition of 12.8%. In test [2], the IC50 is > 100 µM (inactive).

As for `CCOCC(=O)Nc1nc2c(s1)C(=O)CC(C)(C)C2`, in test [1] (at 50 µM), the inhibition turned out to be 1.4%. Besides, the IC50 in test [2] was > 100 µM (inactive).

On to `CCOC(=O)CNC(=O)CSc1nnc(-c2ccco2)n1Cc1ccco1`, for which the inhibition in test [1] (at 0.781 µM) came out at 14.2%. Moreover, in test [2], the IC50 was > 100 µM (inactive).

Regarding `CC(NC(=O)/C(C#N)=C/c1ccc(Cl)c([N+](=O)[O-])c1)c1ccccc1` (configuration not stated), the inhibition in test [1] (at 50 µM) was determined as 15%. Further, the IC50 in test [2] was > 100 µM (inactive).

`O=C(Nc1cc(C(F)(F)F)ccc1Cl)C(Sc1cccc[n+]1[O-])c1ccccc1` (configuration not stated) returned an inhibition in test [1] (at 50 µM) of 99.8%. Besides, the IC50 in test [2] was 6.31 µM.

In test [1] (at 50 µM), `CC(=O)NC1C(=O)N=C(SCC(=O)NC2CCCCC2)NC1=O` (configuration not stated) registered an inhibition of 20.3%. In test [2], the IC50 was > 100 µM (inactive).

On to `Cc1cc(=O)[nH]c(-n2nc(C)cc2C)n1`, for which the inhibition in test [1] (at 50 µM) was found to be 99.6%. Also, the IC50 in test [2] was 15.4 µM.

In turn, `O=C1ON=C(c2ccccc2)/C1=C/c1ccc(OS(=O)(=O)c2ccccc2)cc1` showed an inhibition in test [1] (at 50 µM) of 11.6%. For the same molecule, in test [2], the IC50 is > 100 µM (inactive).

The molecule `CCn1c2ccc(C)cc2c2nc3cc(C(=O)O)ccc3nc21` showed an inhibition in test [1] (at 50 µM) of 75%. Moreover, the IC50 in test [2] was 23.9 µM.

As to `CCCCCCCCCCCCCCCC(O)C(N)CO` (configuration not stated), the inhibition in test [1] (at 50 µM) was 99.2%. The IC50 in test [2] is 24.8 µM.

Turning to `Cc1nn2c(-c3ccncc3)nnc2c2ccccc12`, in test [1] (at 25 µM), the inhibition was found to be 73.2%. Also, the IC50 in test [2] is 11.8 µM.

`COc1ccccc1C(=O)NNC(=S)NC(=O)c1ccco1` registered an inhibition in test [1] (at 50 µM) of 29.3%. Further, the IC50 in test [2] is > 100 µM (inactive).

`O=C(O)c1ccccc1Nc1ccc([N+](=O)[O-])cc1` yielded an inhibition in test [1] (at 50 µM) of 98%. In addition, the IC50 in test [2] is 14.6 µM.

In turn, `COC1=C(N)C(=O)c2nc(-c3nc(C(=O)O)c(C)c(-c4ccc(OC)c(OC)c4O)c3N)ccc2C1=O` gave an inhibition in test [1] (at 50 µM) of 98.7%. Also, the IC50 in test [2] is 0.463 µM.
